Where no end group is shown, it is not given here.
Key:
[1] = molecular target: AVP (Homo sapiens, UniProt P01185); assay: Solid matrix binding of 3H-AVP to immobilized AVP-binding peptide; details: 3H-AVP binding to peptide coupled to a solid matrix, room temperature 1 hr; read-out: apparent KD
Experimental: FIG. 1--Specific binding of ^3 H-AVP to AVP-binding peptide […] AVP-binding peptide (200 μl of a 2 mg/ml solution) was bound overnight at 4° C. onto 96-well Immulon plates (Dynatech, Alexandria, Va.). Plates were washed three times with phosphate-buffered saline containing 5% BSA and 0.1% TWEEN™ 20 (binding buffer). Remaining binding sites were bound by incubating plates at room temperature with 20 μl binding buffer/well for 2 hr. After extensive washing, cold AVP (10 μM) was added to the appropriate plates 20 min, prior to the addition of ^3 H-AVP. Solid matrix binding was carried out at room temperature for 1 hr. Plates were washed three times and counts were solubilized with 1 N NaOH. Counts were then placed in scintillation vials and counted on a beta-scintillation counter. Specific binding of ^3 H-AVP was the difference between the binding in the absence and presence of cold AVP.
Evidence for such direct interaction is provided by the binding data of FIG. 1, where ^3 H-AVP bound to the peptide coupled to a solid matrix with an apparent KD of approximately 50 nM. The binding was inhibited by excess cold AVP. We conclude that the peptide blocks AVP function through direct binding to AVP.

[2] = tested on: AVP receptor on splenic lymphocyte; assay: Binding of 3H-AVP to receptor on splenic lymphocyte membranes; set-up: species or system mouse; details: for DPM (Mean ± SD): 300 nM 3H-AVP
Experimental: Membranes were prepared as previously described (Torres and Johnson [1988] supra). Freshly dissociated spleen cells were incubated on plastic at 37° C. for 1 hr to remove adherent cells. Plates were washed and non-adherent cells were incubated for an additional hour at 37° C. Washed non-adherent cells were resuspended in 50 mM Tris-HCl buffer (pH 7.4) containing 10 mM EGTA and 10 μM phenylmethylsulfonylfluoride (PMSF), which generally lysed any red blood cells in the preparation. Additional red blood cell lysis was performed using 10 mM potassium bicarbonate buffer containing 16 mM ammonium chloride and 100 μM ethylenediaminetetraacetic acid (EDTA). Cells were washed twice and sonicated on ice using a Fisher Model 300 Sonicator (Fisher Scientific, Pittsburgh, Penna.) with microprobe. Preparations were monitored microscopically and were sonicated until greater than 95% cell rupture was achieved. Sonicated preparations were centrifuged at 1000×g at 4° C. to remove debris and large particles. Supernatants were then spun at 33,000 rpm (55,000×g) at 4° C. for 45 min in a Sorvall UTD65B Ultracentrifuge (T1270 rotor) to isolate membranes. Resulting membrane preparations were resuspended in 50 mM Tris-HCl (pH 7.4) containing 10 mM MgCL2 and 10 μM PMSF, and aliquots were stored at -70° C.
Membranes (30 μg/ml) were incubated in a final volume of 200 μl with cold AVP and/or AVP-binding peptide for 20 min. prior to the addition of 300 nM ^3 H-AVP (specific activity, 70 Ci/mmol; New England Nuclear, Boston, Mass.). Binding was carried out at room temperature for 30 min., at which time samples were placed on ice to stop further binding. Membranes were washed through 0.45 μm filters (GVWP; Millipore, Bedford, Mass.) presoaked in 2% bovine serum albumin (BSA) with approximately 50× volume of ice cold reaction buffer (50 mM Tris-HCl, pH 7.4, 10 mM MgCl2, 2% BSA, 10 μM PMSF). Filters were then placed in scintillation vials and radioactivity was counted on a beta-scintillation counter.

[3] = tested on: PA helper signal for IFN production; assay: Pressinoic acid (PA) help in IFN production in helper cell depleted spleen cell cultures; assay type: cell-based, mouse

With TMKVLTGSP [AVP-binding peptide] the Kd [1] was ~50 nM.
`NC(=O)CC[C@@H]1NC(=O)[C@H](Cc2ccccc2)NC(=O)[C@H](Cc2ccc(O)cc2)NC(=O)[C@@H](N)CSSC[C@@H](C(=O)N2CCC[C@H]2C(=O)N[C@@H](CCCN=C(N)N)C(=O)NCC(N)=O)NC(=O)[C@H](CC(N)=O)NC1=O` [AVP, Arginine vasopressin] was tested, and the “effect on binding of 300 nM 3H-AVP to lymphocyte receptors” value ([2]; cold AVP as competitor) was “did compete and block”, the “DPM (Mean ± SD)” value ([2]; competitor 0.1 μM, none = 4,965 ± 226) was 5,265 ± 476 DPM and the “DPM (Mean ± SD)” value ([2]; competitor 1.0 μM) was 4,209 ± 150 DPM. For the same molecule, the “DPM (Mean ± SD)” value ([2]; competitor 10.0 μM) was 3,621 ± 347 DPM and the “DPM (Mean ± SD)” value ([2]; competitor 100.0 μM) was 3,577 ± 167 DPM.
pressinoic acid [PA] was tested, and the IFN ([3]; Table 4, PA (10) (nm), no binding peptide) was 105 ± 21 U/ml, the IFN ([3]; Table 5, PA 3 nM, no complex) was < 3 U/ml and the IFN ([3]; Table 5, PA 10 nM, no complex) was 185 ± 21 U/ml. The IFN ([3]; Table 5, PA 30 nM, no complex) was 250 ± 71 U/ml.
